Results: US9260500B2, “Peptide and use thereof” (Takeda Pharmaceutical Company Limited, priority 2009, dated 2016)
Starred links: 1 amine or outer side, 2 acyl side, 3 side chain; linkers in the order of their positions; H or OH if unused. Non-standard residues stand in square brackets, D forms with d. *: point of attachment. X8 = (2-Hydroxy-1-(hydroxymethyl)ethyl)carbamoyl, O=C(NC(CO)CO)*; 4Pal = N[C@@H](Cc1ccncc1)C(=O)O; Cha = N[C@@H](CC1CCCCC1)C(=O)O; Suc = O=C(CCC(=O)[*:2])[*:1]; Iva = CC[C@](C)(N)C(=O)O; Aib = CC(C)(N)C(=O)O

Experiments:
male C57BL/6J mouse = test: 3-Day Continuous Subcutaneous Administration Test-2 (food intake suppressing activity); format: in vivo; details: 0.03 mg/kg/day, subcutaneous Alzet pump, food consumption as of 2 days after start; versus solvent (50% DMSO) control group
Method: (5) Test Method: 3-Day Continuous Subcutaneous Administration Test-2
The food intake suppressing activity of the compound of the present invention was examined by the following method.
The test compound was dissolved in a solvent (50% DMSO) so that sustained release would occur at 0.03 mg/kg/day, and the solution was filled in the Alzet Pump (DURECT Corporation, model: 1003D). After the filling, the pump was immersed in physiological saline for priming, and then used. The pump was embedded by the following method. Each male C57BL/6J mouse at 9-10 weeks of age (25° C., allowed to take food and water ad libitum; 12-hour bright-12-hour dark cycle) was anesthetized; the skin in the upper back thereof was incised, and the above-mentioned pump was embedded subcutaneously; the incision was sutured. After weighing, this mouse was returned to the rearing cage (reared alone), and given previously weighed food; food consumption as of 2 days after the start of administration was measured. The food consumption was calculated by subtracting the amount of remaining food from the weight of the food given on the day of the start of administration. From the food consumption obtained, the food intake suppression rate (%) of each test compound was calculated using the following the formula.
A group receiving administration of the aforementioned solvent alone was the control group.
Food intake suppression rate (%): (Food consumption for control group−food consumption for test compound administration group)/food consumption for control group×100

human Y2 receptor [1] = target: T1, human Y2 receptor (Homo sapiens, UniProt P49146); test: Receptor Binding Assay (RBA) for Human Y2, [125I]-PYY displacement on hY2R/CHO membrane fraction; details: IC50 of test compound/IC50 of PYY(3-36) (PYY(3-36) taken as 1)
T1 construct: expressed in transfected cells; membrane fraction
T1 sequence (P49146 1-381): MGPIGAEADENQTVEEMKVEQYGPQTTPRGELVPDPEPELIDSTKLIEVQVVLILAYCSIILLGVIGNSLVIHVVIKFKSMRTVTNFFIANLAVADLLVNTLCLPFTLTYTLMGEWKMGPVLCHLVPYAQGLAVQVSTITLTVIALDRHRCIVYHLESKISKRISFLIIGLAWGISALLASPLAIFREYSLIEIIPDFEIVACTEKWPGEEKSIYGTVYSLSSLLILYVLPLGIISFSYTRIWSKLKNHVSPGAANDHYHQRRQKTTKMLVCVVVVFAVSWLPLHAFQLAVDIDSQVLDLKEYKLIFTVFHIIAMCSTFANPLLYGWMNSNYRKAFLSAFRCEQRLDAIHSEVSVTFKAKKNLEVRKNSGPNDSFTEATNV
How it was run: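 Read-out is [125I]-PYY displacement from membranes of CHO/dhfr− cells stably transfected with human Y2R. Membranes were obtained by disrupting cells in a buffer of 10 mM NaHCO3, 5 mM EDTA and protease inhibitors.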

human Y2 receptor [2] = target: T1, human Y2 receptor; test: Human Y2 Receptor G Protein Binding Assay (GBA), [35S]GTPγS; format: biochemical; details: EC50 of test compound/EC50 of PYY(3-36) (PYY3-36 taken as 1), hY2R/CHO membrane fraction
How it was run: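 Agonism measured as [35S]GTPγS binding, read by GF/C filtration and scintillation counting after 120 min at room temperature, using human Y2 membranes at 1 μg protein/mL in pH 7.4 Tris/MgCl2/NaCl/GDP buffer. Compound serially diluted 100 μM–1 nM; EC50 normalized to PYY(3-36) (ratio = compound/PYY).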

male C57EL/6J mice = test: 3-Days Continuous Subcutaneous Administration Test-1 (food intake suppressing activity); format: in vivo, mouse; details: 0.03 mg/kg/day, subcutaneous Alzet pump, food consumption over 3 days; relative to food intake suppression rate for PYY(3-36) (1 mg/kg/day) taken as 100%
How it was run: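 Male […] mice, 12-13 weeks, received compound at 0.03 mg/kg/day by subcutaneous osmotic pump (50% DMSO vehicle), housed singly with free food access. Food consumed over 3 days measured; suppression expressed relative to PYY(3-36) (1 mg/kg/day) set as 100%.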

Substance | food intake suppression rate (%) (male C57BL/6J mouse) | further results
4-Imidazolecarbonyl-[D-Hyp24, Pya(4)26, Cha27,36, Leu(Me)28, Lys30, Aib31]-PYY(23-36) [compound No. 370] | 17.9% | 
Carbamoyl-[D-Hyp24, Iva25, Pya(4)26, Cha27,36, Leu(Me)28, Lys30, Aib31]-PYY(23-36) [compound No. 364] | 37.3% | 
4-Imidazolecarbonyl-[D-Pro24, Pya(4)26, Cha27,36, Iva28, Lys(Ac)30, Aib31]-PYY(23-36) [compound No. 371] | 18.6% | 
4-Imidazolecarbonyl-[D-Hyp24, Pya(4)26, Cha27,36, Iva28, Lys(Ac)30, D-Iva31]-PYY(23-36) [compound No. 374] | 22.6% | 
[D-Hyp24, Iva25, Pya(4)26, Cha27,36, Leu(Me)28, Lys(Ac)30, Aib31]-PYY(23-36) [compound No. 373] | 17.5% | 
4-Imidazolecarbonyl-[D-Pro24, Pya(4)26, Cha27,36, Iva28, Lys30, Aib31]-PYY(23-36) [compound No. 366] | 32.9% | 
Thp(4)-NHCO-[D-Hyp24, Iva25, Pya(4)26, Cha27,36, Leu(Me)28, Lys30, Aib31]-PYY(23-36) [compound No. 358] | 62.5% | 
4-Imidazolecarbonyl-[D-Hyp24, Iva25, Pya(4)26, Cha27,36, Leu(Me)28, Lys(Ac)30, D-Iva31]-PYY(23-36) [compound No. 369] | 47.8% | 
Ac-[Glu23, D-Pro24, Iva25, Pya(4)26, Cha27,36, Leu(Me)28, Lys30, Aib31]-PYY(23-36) [compound No. 363] | 27.7% | 
4-Imidazolecarbonyl-[D-Hyp24, Iva25, Pya(4)26, Cha27, Leu(Me)28, Lys30, Aib31, Phe(2,6-Me2)36]-PYY(23-36) [compound No. 360] | 36.7% | 
Thp(4)-CH2NHCO-[D-Hyp24, Iva25, Pya(4)26, Cha27,36, Leu(Me)28, Lys30, Aib31]-PYY(23-36) [compound No. 359] | 43.4% | 
4-Imidazolecarbonyl-[D-Hyp24, Iva25, Pya(4)26, Cha27,36, Leu(Me)28, Har30, Aib31]-PYY(23-36) [compound No. 367] | 24.0% | 
4-Imidazolecarbonyl-[D-Hyp24, Iva25, Pya(4)26, Cha27,36, Leu(Me)28, Lys(Ac)30, Aib31]-PYY(23-36) [compound No. 362] | 54.2% | 
Thp(4)-CO-[D-Hyp24, Iva25, Pya(4)26, Cha27,36, Leu(Me)28, Lys30, Aib31]-PYY(23-36) [compound No. 361] | 23.3% | 
4-Imidazolecarbonyl-[Aib24,31, Iva25, Pya(4)26, Cha27,36, Leu(Me)28, Lys(Ac)30]-PYY(23-36) [compound No. 368] | 34.9% | 
4-Imidazolecarbonyl-[D-Hyp24, Iva25, Pya(4)26, Cha27,36, Iva28, Lys30, D-Iva31]-PYY(23-36) [compound No. 372] | 27.2% | 
4-Imidazolecarbonyl-[D-Pro24, Iva25, Pya(4)26, Cha27,36, Leu(Me)28, Lys(Ac)30, Aib31]-PYY(23-36) [compound No. 365] | 37.8% | 
[2-Hydroxy-1-(hydroxymethyl)ethyl]carbamoyl-[D-Pro24, Iva25, Pya(4)26, Cha27,36, Aib28,31, Lys30]-PYY(23-36) (X8-S[dP][Iva][4Pal][Cha][Aib]NK[Aib]TRQR[Cha]-NH2; SMILES CC[C@](C)(NC(=O)[C@H]1CCCN1C(=O)[C@H](CO)NC(=O)NC(CO)CO)C(=O)N[C@@H](Cc1ccncc1)C(=O)N[C@@H](CC1CCCCC1)C(=O)NC(C)(C)C(=O)N[C@@H](CC(N)=O)C(=O)N[C@@H](CCCCN)C(=O)NC(C)(C)C(=O)N[C@H](C(=O)N[C@@H](CCCNC(=N)N)C(=O)N[C@@H](CCC(N)=O)C(=O)N[C@@H](CCCNC(=N)N)C(=O)N[C@@H](CC1CCCCC1)C(N)=O)[C@@H](C)O) [compound No. 339] |  | RBA IC50 Ratio (human Y2 receptor [1]): 1.76; GBA EC50 Ratio (human Y2 receptor [2]): 2.0; food intake suppression rate (%) (male C57EL/6J mice): 51%
Ac-[D-Pro24, Iva25, Pya(4)26, Cha27,36, Leu(Me)28, Lys30, Aib31]-PYY(23-36) [compound No. 295] |  | RBA IC50 Ratio (human Y2 receptor [1]): 0.76; GBA EC50 Ratio (human Y2 receptor [2]): 1.2; food intake suppression rate (%) (male C57EL/6J mice): 52%
3-Carboxypropionyl-[D-Pro24, Pya(4)26, Cha27,36, Aib28,31, Lys30]-PYY(24-36) (Suc-[dP]R[4Pal][Cha][Aib]NK[Aib]TRQR[Cha]-NH2; SMILES C[C@@H](O)[C@H](NC(=O)C(C)(C)NC(=O)[C@H](CCCCN)NC(=O)[C@H](CC(N)=O)NC(=O)C(C)(C)NC(=O)[C@H](CC1CCCCC1)NC(=O)[C@H](Cc1ccncc1)NC(=O)[C@H](CCCNC(=N)N)NC(=O)[C@H]1CCCN1C(=O)CCC(=O)O)C(=O)N[C@@H](CCCNC(=N)N)C(=O)N[C@@H](CCC(N)=O)C(=O)N[C@@H](CCCNC(=N)N)C(=O)N[C@@H](CC1CCCCC1)C(N)=O) [compound No. 303] |  | RBA IC50 Ratio (human Y2 receptor [1]): 1.2; GBA EC50 Ratio (human Y2 receptor [2]): 1.2; food intake suppression rate (%) (male C57EL/6J mice): 20%
3-Carboxypropionyl-[D-Pro24, Pya(4)26, Cha27,36, Aib28,31, Lys30]-PYY(23-36) (Suc-S[dP]R[4Pal][Cha][Aib]NK[Aib]TRQR[Cha]-NH2; SMILES C[C@@H](O)[C@H](NC(=O)C(C)(C)NC(=O)[C@H](CCCCN)NC(=O)[C@H](CC(N)=O)NC(=O)C(C)(C)NC(=O)[C@H](CC1CCCCC1)NC(=O)[C@H](Cc1ccncc1)NC(=O)[C@H](CCCNC(=N)N)NC(=O)[C@H]1CCCN1C(=O)[C@H](CO)NC(=O)CCC(=O)O)C(=O)N[C@@H](CCCNC(=N)N)C(=O)N[C@@H](CCC(N)=O)C(=O)N[C@@H](CCCNC(=N)N)C(=O)N[C@@H](CC1CCCCC1)C(N)=O) [compound No. 217] |  | RBA IC50 Ratio (human Y2 receptor [1]): 0.96; GBA EC50 Ratio (human Y2 receptor [2]): 1.2; food intake suppression rate (%) (male C57EL/6J mice): 28%
